From PMC9683047, “Design, synthesis and biological evaluation of 4-aminoquinoline derivatives as receptor-interacting protein kinase 2 (RIPK2) inhibitors” (Journal of Enzyme Inhibition and Medicinal Chemistry, 2022)

How the values were obtained:
[1] = Human liver microsome stability; type: in vitro ADME; details: human liver microsomes
Rse(h) = target: T1, Rse(h) (Homo sapiens, UniProt Q06418); experiment: Kinase selectivity panel: Rse; type: biochemical; details: 1 µM
T1 construct: purchased Eurofins (Millipore) KinaseProfiler Diversity Panel
Experimental: (§1) To confirm the anti-inflammatory effect was caused by RIPK2 inhibition, compound 14 was subjected to kinase selectivity evaluation (Figure 4). Kinase selectivity profile of compound 14 as shown by the diversity kinase Panel screen against 70 kinases assayed at 1 µM. Among all tested 70 kinases, only five were inhibited over 90% at 1 µM including Fyn, Lyn, BTK, Abl and RIPK2. Three kinases including KDR, CDK9 and LOK were inhibited 50–90% at 1 µM.

JAK3(h) = target: T2, JAK3(h) (Homo sapiens, UniProt P52333); experiment: Kinase selectivity panel: JAK3; type: biochemical; details: 1 µM
T2 construct: purchased Eurofins (Millipore) KinaseProfiler Diversity Panel
Experimental: as §1

PRAK(h) = target: T3, PRAK(h) (Homo sapiens, UniProt Q8IW41); experiment: Kinase selectivity panel: PRAK; type: biochemical; details: 1 µM
T3 construct: purchased Eurofins (Millipore) KinaseProfiler Diversity Panel
Experimental: as §1

PKCα(h) = target: T4, PKCα(h) (Homo sapiens, UniProt P17252); experiment: Kinase selectivity panel: PKCα; type: biochemical; details: 1 µM
T4 construct: purchased Eurofins (Millipore) KinaseProfiler Diversity Panel
Experimental: as §1

CDK1/cyclinB(h) = target: T5, CDK1/cyclinB(h) (Homo sapiens, UniProt P06493); experiment: Kinase selectivity panel: CDK1/cyclinB; type: biochemical
T5 construct: purchased Eurofins (Millipore) KinaseProfiler Diversity Panel
Experimental: as §1

Itk(h) = target: T6, Itk(h) (Homo sapiens, UniProt Q08881); experiment: Kinase selectivity panel: Itk; type: biochemical
T6 construct: purchased Eurofins (Millipore) KinaseProfiler Diversity Panel
Experimental: as §1

IRAK1(h) = target: T7, IRAK1(h) (Homo sapiens, UniProt P51617); experiment: Kinase selectivity panel: IRAK1; type: biochemical
T7 construct: purchased Eurofins (Millipore) KinaseProfiler Diversity Panel
Experimental: as §1

[2] = tested on: MDP-induced TNF-α secretion in Raw264.7; experiment: TNF-α secretion in MDP-induced Raw264.7 (ELISA); type: cell-based, mouse; details: Raw264.7, compounds 1 h then L18-MDP 20 µg/mL 24 h, series concentration
Experimental: Raw 264.7 was cultured in DMEM containing 10% (w/v) foetal bovine serum (FBS). Cell were seeded at a density of 1 × 10^5 cells/well in a 48 well plate overnight, then cells were treated with different concentrations of compounds for1h, following by stimulated with L18-MDP (20 µg/mL, Invivogen) for 24 h. The Cell supernatants were harvested for enzyme-linked immunosorbent assay (ELISA).
TNFα commercial ELISA kits (DAKEWE) were used to detect TNFα in cell culture supernatants according to the manufacturer’s instructions. The concentration of cytokines was determined using multiwell spectrophotometer (SpetraMAX PLUS, Molecular Devices).

Aurora-A(h) = target: T8, Aurora-A(h) (Homo sapiens, UniProt O14965); experiment: Kinase selectivity panel: Aurora-A; type: biochemical; details: 1 µM
T8 construct: purchased Eurofins (Millipore) KinaseProfiler Diversity Panel
Experimental: as §1

Syk(h) = target: T9, Syk(h) (Homo sapiens, UniProt P43405); experiment: Kinase selectivity panel: Syk; type: biochemical
T9 construct: purchased Eurofins (Millipore) KinaseProfiler Diversity Panel
Experimental: as §1

ROCK-I(h) = target: T10, ROCK-I(h) (Homo sapiens, UniProt Q13464); experiment: Kinase selectivity panel: ROCK-I; type: biochemical; details: 1 µM
T10 construct: purchased Eurofins (Millipore) KinaseProfiler Diversity Panel
Experimental: as §1

MLK1(h) = target: T11, MLK1(h) (Homo sapiens, UniProt P80192); experiment: Kinase selectivity panel: MLK1; type: biochemical
T11 construct: purchased Eurofins (Millipore) KinaseProfiler Diversity Panel
Experimental: as §1

MSK2(h) = target: T12, MSK2(h) (Homo sapiens, UniProt O75676); experiment: Kinase selectivity panel: MSK2; type: biochemical
T12 construct: purchased Eurofins (Millipore) KinaseProfiler Diversity Panel
Experimental: as §1

[3] = target: T13, PI3 Kinase (p110a/p85a)(h) (Homo sapiens, UniProt P42336); experiment: Kinase selectivity panel: PI3 Kinase (p110a/p85a); type: biochemical; details: 1 µM
T13 construct: purchased Eurofins (Millipore) KinaseProfiler Diversity Panel
Experimental: as §1

CaMKI(h) = target: T14, CaMKI(h) (Homo sapiens, UniProt Q14012); experiment: Kinase selectivity panel: CaMKI; type: biochemical; details: 1 µM
T14 construct: purchased Eurofins (Millipore) KinaseProfiler Diversity Panel
Experimental: as §1

Pim-1(h) = target: T15, Pim-1(h) (Homo sapiens, UniProt P11309); experiment: Kinase selectivity panel: Pim-1; type: biochemical
T15 construct: purchased Eurofins (Millipore) KinaseProfiler Diversity Panel
Experimental: as §1

DRAK1(h) = target: T16, DRAK1(h) (Homo sapiens, UniProt Q9UEE5); experiment: Kinase selectivity panel: DRAK1; type: biochemical; details: 1 µM
T16 construct: purchased Eurofins (Millipore) KinaseProfiler Diversity Panel
Experimental: as §1

PKCθ(h) = target: T17, PKCθ(h) (Homo sapiens, UniProt Q04759); experiment: Kinase selectivity panel: PKCθ; type: biochemical
T17 construct: purchased Eurofins (Millipore) KinaseProfiler Diversity Panel
Experimental: as §1

PI3 Kinase (p120g)(h) = target: T18, PI3 Kinase (p120g)(h) (Homo sapiens, UniProt P48736); experiment: Kinase selectivity panel: PI3 Kinase (p120g); type: biochemical; details: 1 µM
T18 construct: purchased Eurofins (Millipore) KinaseProfiler Diversity Panel
Experimental: as §1

NEK2(h) = target: T19, NEK2(h) (Homo sapiens, UniProt P51955); experiment: Kinase selectivity panel: NEK2; type: biochemical; details: 1 µM
T19 construct: purchased Eurofins (Millipore) KinaseProfiler Diversity Panel
Experimental: as §1

EphA5(h) = target: T20, EphA5(h) (Homo sapiens, UniProt P54756); experiment: Kinase selectivity panel: EphA5; type: biochemical; details: 1 µM
T20 construct: purchased Eurofins (Millipore) KinaseProfiler Diversity Panel
Experimental: as §1

EphB4(h) = target: T21, EphB4(h) (Homo sapiens, UniProt P54760); experiment: Kinase selectivity panel: EphB4; type: biochemical
T21 construct: purchased Eurofins (Millipore) KinaseProfiler Diversity Panel
Experimental: as §1

RIPK2 = target: T22, RIPK2 (Homo sapiens, UniProt O43353); experiment: RIPK2 kinase inhibition assay (ADP-Glo); type: biochemical; details: mean ± SD from two separate experiments
T22 construct: purchased Promega
Experimental: RIPK2 kinase activity was analysed using the ADP-Glo™ Assay Kit (RIPK2 Kinase Enzyme System, Promega, USA). Reactions were performed according to the instructions. Specific signal was calculated by subtracting values in the wells without protein and inhibitor from the values in the test wells.

KDR(h) = target: T23, KDR(h) (Homo sapiens, UniProt P35968); experiment: Kinase selectivity panel: KDR; type: biochemical; set-up: KDR(h), 14 @ 1 µM: unit not given here
T23 construct: purchased Eurofins (Millipore) KinaseProfiler Diversity Panel
Experimental: as §1

c-RAF(h) = target: T24, c-RAF(h) (Homo sapiens, UniProt P04049); experiment: Kinase selectivity panel: c-RAF; type: biochemical
T24 construct: purchased Eurofins (Millipore) KinaseProfiler Diversity Panel
Experimental: as §1

AMPKα1(h) = target: T25, AMPKα1(h) (Homo sapiens, UniProt Q13131); experiment: Kinase selectivity panel: AMPKα1; type: biochemical
T25 construct: purchased Eurofins (Millipore) KinaseProfiler Diversity Panel
Experimental: as §1

Lyn(h) = target: T26, Lyn(h) (Homo sapiens, UniProt P07948); experiment: Kinase selectivity panel: Lyn; type: biochemical
T26 construct: purchased Eurofins (Millipore) KinaseProfiler Diversity Panel
Experimental: as §1

IKKε(h) = target: T27, IKKε(h) (Homo sapiens, UniProt Q14164); experiment: Kinase selectivity panel: IKKε; type: biochemical
T27 construct: purchased Eurofins (Millipore) KinaseProfiler Diversity Panel
Experimental: as §1

CDK6/cyclinD3(h) = target: T28, CDK6/cyclinD3(h) (Homo sapiens, UniProt Q00534); experiment: Kinase selectivity panel: CDK6/cyclinD3; type: biochemical
T28 construct: purchased Eurofins (Millipore) KinaseProfiler Diversity Panel
Experimental: as §1

SRPK1(h) = target: T29, SRPK1(h) (Homo sapiens, UniProt Q96SB4); experiment: Kinase selectivity panel: SRPK1; type: biochemical; set-up: unit not given here
T29 construct: purchased Eurofins (Millipore) KinaseProfiler Diversity Panel
Experimental: as §1

SAPK2a(h) = target: T30, SAPK2a(h) (Homo sapiens, UniProt Q16539); experiment: Kinase selectivity panel: SAPK2a; type: biochemical
T30 construct: purchased Eurofins (Millipore) KinaseProfiler Diversity Panel
Experimental: as §1

CDK7/cyclinH/MAT1(h) = target: T31, CDK7/cyclinH/MAT1(h) (Homo sapiens, UniProt P50613); experiment: Kinase selectivity panel: CDK7/cyclinH/MAT1; type: biochemical
T31 construct: purchased Eurofins (Millipore) KinaseProfiler Diversity Panel
Experimental: as §1

T23 sequence (P35968 20-1356): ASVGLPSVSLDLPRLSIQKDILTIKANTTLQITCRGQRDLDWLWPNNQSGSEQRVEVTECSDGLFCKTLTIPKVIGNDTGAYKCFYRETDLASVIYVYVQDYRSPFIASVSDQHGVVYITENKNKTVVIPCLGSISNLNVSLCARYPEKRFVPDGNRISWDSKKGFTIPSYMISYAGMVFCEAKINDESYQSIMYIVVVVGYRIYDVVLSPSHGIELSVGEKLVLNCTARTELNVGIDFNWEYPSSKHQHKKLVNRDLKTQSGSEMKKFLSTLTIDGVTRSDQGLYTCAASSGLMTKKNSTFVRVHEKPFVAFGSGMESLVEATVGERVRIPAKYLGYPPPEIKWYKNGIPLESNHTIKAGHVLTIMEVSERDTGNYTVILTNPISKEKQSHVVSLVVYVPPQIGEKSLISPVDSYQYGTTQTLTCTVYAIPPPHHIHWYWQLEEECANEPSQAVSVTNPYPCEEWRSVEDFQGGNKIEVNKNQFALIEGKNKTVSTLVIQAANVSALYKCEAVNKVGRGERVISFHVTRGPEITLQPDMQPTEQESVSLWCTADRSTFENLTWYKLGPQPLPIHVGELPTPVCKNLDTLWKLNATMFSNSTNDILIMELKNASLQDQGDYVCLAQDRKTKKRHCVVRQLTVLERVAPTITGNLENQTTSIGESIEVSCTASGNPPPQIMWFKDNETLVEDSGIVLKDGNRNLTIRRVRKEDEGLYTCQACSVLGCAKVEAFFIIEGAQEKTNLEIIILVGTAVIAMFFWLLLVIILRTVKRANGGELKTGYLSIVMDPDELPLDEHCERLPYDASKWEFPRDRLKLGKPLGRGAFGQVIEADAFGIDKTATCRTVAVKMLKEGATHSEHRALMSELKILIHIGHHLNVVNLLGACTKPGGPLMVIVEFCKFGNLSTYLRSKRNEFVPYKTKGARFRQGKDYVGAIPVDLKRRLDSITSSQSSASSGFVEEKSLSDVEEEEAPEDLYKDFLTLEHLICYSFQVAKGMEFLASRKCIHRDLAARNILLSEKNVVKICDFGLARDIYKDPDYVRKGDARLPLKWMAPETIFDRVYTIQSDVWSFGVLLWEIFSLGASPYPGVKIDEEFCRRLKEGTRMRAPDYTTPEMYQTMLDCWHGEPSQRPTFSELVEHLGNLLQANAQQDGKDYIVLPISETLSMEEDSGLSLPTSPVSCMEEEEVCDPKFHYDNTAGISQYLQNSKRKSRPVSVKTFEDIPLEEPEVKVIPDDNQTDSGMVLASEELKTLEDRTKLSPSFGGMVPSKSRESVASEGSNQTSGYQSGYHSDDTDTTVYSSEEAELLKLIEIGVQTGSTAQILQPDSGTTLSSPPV
T26 sequence (P07948 whole entry): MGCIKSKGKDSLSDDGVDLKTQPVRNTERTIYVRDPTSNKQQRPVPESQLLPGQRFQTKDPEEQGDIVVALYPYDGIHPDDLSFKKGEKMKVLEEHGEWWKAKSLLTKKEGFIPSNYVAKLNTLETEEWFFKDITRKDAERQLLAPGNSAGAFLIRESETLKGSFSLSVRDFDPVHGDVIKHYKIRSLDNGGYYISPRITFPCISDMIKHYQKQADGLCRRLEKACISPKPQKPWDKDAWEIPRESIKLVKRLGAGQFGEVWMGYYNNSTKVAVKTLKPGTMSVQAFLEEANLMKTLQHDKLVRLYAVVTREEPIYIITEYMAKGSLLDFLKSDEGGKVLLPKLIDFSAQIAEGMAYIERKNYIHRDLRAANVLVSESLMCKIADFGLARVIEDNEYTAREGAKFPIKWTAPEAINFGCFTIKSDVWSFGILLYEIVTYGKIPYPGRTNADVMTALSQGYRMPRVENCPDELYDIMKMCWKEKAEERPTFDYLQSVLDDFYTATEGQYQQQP
T13 sequence (P42336 whole entry): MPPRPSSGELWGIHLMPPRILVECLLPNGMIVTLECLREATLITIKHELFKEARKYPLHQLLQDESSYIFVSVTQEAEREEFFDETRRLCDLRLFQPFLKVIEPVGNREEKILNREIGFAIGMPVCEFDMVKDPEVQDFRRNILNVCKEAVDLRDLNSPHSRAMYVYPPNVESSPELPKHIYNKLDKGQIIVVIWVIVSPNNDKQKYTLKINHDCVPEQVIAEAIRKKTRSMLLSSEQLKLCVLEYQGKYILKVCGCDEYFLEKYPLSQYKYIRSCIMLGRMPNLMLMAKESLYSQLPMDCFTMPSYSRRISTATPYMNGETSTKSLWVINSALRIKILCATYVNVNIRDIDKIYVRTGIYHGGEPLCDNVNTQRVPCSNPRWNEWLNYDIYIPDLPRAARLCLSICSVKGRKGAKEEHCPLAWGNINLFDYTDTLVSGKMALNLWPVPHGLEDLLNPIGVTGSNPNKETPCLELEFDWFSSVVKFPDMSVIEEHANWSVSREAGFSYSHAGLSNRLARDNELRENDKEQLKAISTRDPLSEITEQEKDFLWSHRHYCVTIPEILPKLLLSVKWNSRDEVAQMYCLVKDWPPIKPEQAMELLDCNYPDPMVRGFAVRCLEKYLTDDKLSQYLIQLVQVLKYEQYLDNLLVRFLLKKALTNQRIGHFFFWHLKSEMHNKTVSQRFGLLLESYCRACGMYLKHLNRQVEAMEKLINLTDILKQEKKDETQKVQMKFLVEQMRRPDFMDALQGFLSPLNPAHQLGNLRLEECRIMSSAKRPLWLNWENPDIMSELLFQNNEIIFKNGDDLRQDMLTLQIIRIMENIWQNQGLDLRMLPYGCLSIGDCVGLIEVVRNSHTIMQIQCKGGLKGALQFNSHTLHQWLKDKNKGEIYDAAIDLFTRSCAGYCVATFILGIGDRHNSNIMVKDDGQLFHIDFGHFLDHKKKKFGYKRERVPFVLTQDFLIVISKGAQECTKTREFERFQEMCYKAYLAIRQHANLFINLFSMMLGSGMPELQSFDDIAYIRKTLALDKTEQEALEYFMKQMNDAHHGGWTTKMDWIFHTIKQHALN
T13 sequence (P27986 whole entry partner): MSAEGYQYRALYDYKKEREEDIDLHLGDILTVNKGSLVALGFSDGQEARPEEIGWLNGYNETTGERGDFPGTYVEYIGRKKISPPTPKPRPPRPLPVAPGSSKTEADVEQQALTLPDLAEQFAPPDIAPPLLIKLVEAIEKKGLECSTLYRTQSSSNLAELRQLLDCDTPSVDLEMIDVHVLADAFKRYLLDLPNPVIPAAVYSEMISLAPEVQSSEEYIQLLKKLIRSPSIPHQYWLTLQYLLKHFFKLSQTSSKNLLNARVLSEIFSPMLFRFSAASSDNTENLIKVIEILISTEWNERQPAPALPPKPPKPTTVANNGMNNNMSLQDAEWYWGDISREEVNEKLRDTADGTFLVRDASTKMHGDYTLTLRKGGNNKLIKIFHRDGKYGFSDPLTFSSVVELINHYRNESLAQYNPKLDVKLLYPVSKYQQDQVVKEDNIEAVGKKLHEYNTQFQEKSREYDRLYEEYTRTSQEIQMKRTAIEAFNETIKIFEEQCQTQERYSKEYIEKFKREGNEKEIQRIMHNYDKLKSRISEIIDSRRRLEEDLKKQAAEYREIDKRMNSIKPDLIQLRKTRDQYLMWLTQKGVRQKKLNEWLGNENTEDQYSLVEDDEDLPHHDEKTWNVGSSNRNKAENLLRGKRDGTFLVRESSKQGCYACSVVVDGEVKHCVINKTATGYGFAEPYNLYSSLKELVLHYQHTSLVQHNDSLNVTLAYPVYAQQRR
T10 sequence (Q13464 whole entry): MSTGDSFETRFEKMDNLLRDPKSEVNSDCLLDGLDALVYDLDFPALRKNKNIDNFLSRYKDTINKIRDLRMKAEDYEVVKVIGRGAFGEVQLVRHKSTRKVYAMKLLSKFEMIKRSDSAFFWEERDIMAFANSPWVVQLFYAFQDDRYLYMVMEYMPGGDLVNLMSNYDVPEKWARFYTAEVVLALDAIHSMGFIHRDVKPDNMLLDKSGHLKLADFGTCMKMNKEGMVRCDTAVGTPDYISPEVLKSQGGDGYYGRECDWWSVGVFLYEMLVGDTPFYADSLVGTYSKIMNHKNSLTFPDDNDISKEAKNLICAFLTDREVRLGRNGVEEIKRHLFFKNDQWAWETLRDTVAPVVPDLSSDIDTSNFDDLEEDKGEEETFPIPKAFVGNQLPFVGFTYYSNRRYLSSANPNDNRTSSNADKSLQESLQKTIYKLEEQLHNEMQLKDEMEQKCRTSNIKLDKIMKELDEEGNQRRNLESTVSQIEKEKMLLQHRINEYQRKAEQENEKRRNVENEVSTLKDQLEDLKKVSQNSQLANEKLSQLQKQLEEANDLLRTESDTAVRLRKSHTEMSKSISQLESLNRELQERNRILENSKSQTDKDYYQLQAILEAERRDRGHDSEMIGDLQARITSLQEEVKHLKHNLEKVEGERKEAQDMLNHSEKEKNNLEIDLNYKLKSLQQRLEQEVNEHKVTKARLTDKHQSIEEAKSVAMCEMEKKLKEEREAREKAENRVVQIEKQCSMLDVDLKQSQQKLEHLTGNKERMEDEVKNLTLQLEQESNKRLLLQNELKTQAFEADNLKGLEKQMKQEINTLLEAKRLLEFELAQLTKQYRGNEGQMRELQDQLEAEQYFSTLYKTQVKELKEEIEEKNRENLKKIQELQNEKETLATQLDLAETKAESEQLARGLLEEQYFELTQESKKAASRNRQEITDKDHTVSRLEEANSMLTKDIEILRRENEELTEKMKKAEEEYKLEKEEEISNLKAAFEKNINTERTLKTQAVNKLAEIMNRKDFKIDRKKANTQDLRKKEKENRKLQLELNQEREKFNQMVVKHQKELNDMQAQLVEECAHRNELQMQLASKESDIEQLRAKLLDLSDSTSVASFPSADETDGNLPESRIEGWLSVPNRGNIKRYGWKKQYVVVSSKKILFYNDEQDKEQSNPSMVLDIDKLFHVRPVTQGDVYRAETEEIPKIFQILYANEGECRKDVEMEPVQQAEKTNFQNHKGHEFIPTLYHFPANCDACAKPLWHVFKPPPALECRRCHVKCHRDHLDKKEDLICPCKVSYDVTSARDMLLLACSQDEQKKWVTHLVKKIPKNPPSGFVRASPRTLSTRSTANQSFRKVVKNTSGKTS

c1cc(-c2ccc3nccc(Nc4ccc5scnc5c4)c3c2)ccn1 [Compound 14, N-(6-(pyridin-4-yl)quinolin-4-yl)benzo[d]thiazol-5-amine]
CL [1]: 9.64 mL/min/kg | half-life [1]: 1.6 h | Remaining kinase activity (% of control) (Rse(h)): 121 | Remaining kinase activity (% of control) (JAK3(h)): 100 | remaining kinase activity (%) (PRAK(h)): 123 | % remaining kinase activity (PKCα(h)): 94 | CDK1/cyclinB remaining activity (% of control) with compound 14 at 1 µM (CDK1/cyclinB(h)): 90 | Remaining Itk kinase activity (%) with compound 14 at 1 µM (Itk(h)): 78 | IRAK1 remaining activity (% of control) with compound 14 at 1 µM (IRAK1(h)): 91 | inhibition of MDP-induced TNF-α secretion [2]: strong inhibitory activity on MDP-induced TNF-α secretion with a dose-dependent manner | Remaining kinase activity (% of control) (Aurora-A(h)): 95 | % remaining kinase activity with compound 14 at 1 µM (Syk(h)): 94 | Remaining kinase activity (% of control) (ROCK-I(h)): 70 | Remaining MLK1 activity (%) with compound 14 at 1 µM (MLK1(h)): 89 | MSK2 remaining kinase activity (% of control) with compound 14 at 1 µM (MSK2(h)): 107 | percent remaining kinase activity [3]: 81 | percent kinase activity remaining (CaMKI(h)): 97 | remaining kinase activity (% of control) with compound 14 at 1 µM (Pim-1(h)): 78 | Remaining DRAK1 activity (% of control) (DRAK1(h)): 110 | remaining kinase activity (% of control) at 1 µM (PKCθ(h)): 74 | Remaining kinase activity (% of control) (PI3 Kinase (p120g)(h)): 79 | percent remaining NEK2 kinase activity with compound 14 (NEK2(h)): 88 | Remaining kinase activity (% of control) (EphA5(h)): 96 | EphB4 remaining activity (%) with compound 14 at 1 µM (EphB4(h)): 96 | IC50 (RIPK2): 5.1 ± 1.6 nM | KDR(h), 14 @ 1 µM (KDR(h); 1 µM): 11 | inhibition at 1 µM (KDR(h); at 1 µM): 50 to 90% | c-RAF remaining activity (% of control) with compound 14 at 1 µM (c-RAF(h)): 65 | Remaining kinase activity (%) with compound 14 at 1 µM (AMPKα1(h)): 103 | Remaining Lyn kinase activity (% of control) (Lyn(h); 1 µM): 3 | inhibition at 1 µM (Lyn(h); at 1 µM): > 90% | Remaining IKKε activity at 1 µM (% of control) (IKKε(h)): 106 | Remaining kinase activity (%) at 1 µM (CDK6/cyclinD3(h)): 100 | SRPK1(h), 14 @ 1 µM (SRPK1(h)): 111 | % remaining SAPK2a activity with compound 14 at 1 µM (SAPK2a(h)): 54 | CDK7/cyclinH/MAT1(h), 14 @ 1 µM (CDK7/cyclinH/MAT1(h)): 83
